Source: PubChem BioAssay (NCI)
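Test compounds were applied to cells in 96-well plates for 48 hours at 5 doses. Abbreviation: GI50, concentration required for 50% inhibition of growth. The concentration for full growth arrest is given as TGI.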

Key:
Test in all cases: NCI tumour cell line growth inhibition, 48 h
[1] = system: 786-0 renal
[2] = system: A498 renal
[3] = system: A549 NSCLC
[4] = system: ACHN renal
[5] = system: CAKI-1 renal
[6] = system: CCRF-CEM leukemia
[7] = system: COLO 205 colon
[8] = system: DLD-1 colon
[9] = system: DMS 114 small cell lung
[10] = system: DMS 273 small cell lung
[11] = system: HCC-2998 colon
[12] = system: HCT-116 colon
[13] = system: HL-60(TB) leukemia
[14] = system: HOP-18 NSCLC
[15] = system: HOP-62 NSCLC
[16] = system: HOP-92 NSCLC
[17] = system: HT29 colon
[18] = system: IGROV1 ovarian
[19] = system: K-562 leukemia
[20] = system: KM12 colon
[21] = system: KM20L2 colon
[22] = system: LOX IMVI melanoma
[23] = system: LXFL 529 NSCLC
[24] = system: M14 melanoma
[25] = system: M19-MEL melanoma
[26] = system: MALME-3M melanoma
[27] = system: MOLT-4 leukemia
[28] = system: NCI-H23 lung
[29] = system: NCI-H460 lung
[30] = system: NCI-H522 lung
[31] = system: OVCAR-3 ovarian
[32] = system: OVCAR-4 ovarian
[33] = system: OVCAR-8 ovarian
[34] = system: RPMI-8226 leukemia
[35] = system: RXF-631 renal
[36] = system: SF-268 CNS
[37] = system: SF-295 CNS
[38] = system: SF-539 CNS
[39] = system: SK-MEL-28 melanoma
[40] = system: SK-MEL-5 melanoma
[41] = system: SK-OV-3 ovarian
[42] = system: SN12C renal
[43] = system: SNB-19 CNS
[44] = system: SNB-75 CNS
[45] = system: SNB-78 CNS
[46] = system: SR leukemia
[47] = system: SW-620 colon
[48] = system: TK-10 renal
[49] = system: U251 CNS
[50] = system: UACC-257 melanoma
[51] = system: UACC-62 melanoma
[52] = system: UO-31 renal
[53] = system: XF 498 CNS
[54] = system: BT-549 breast
[55] = system: DU-145 prostate
[56] = system: EKVX NSCLC
[57] = system: HCT-15 colon
[58] = system: HS 578T breast
[59] = system: MCF7 breast
[60] = system: MDA-MB-231 breast
[61] = system: MDA-MB-435
[62] = system: MDA-N
[63] = system: NCI-H226 lung
[64] = system: NCI/ADR-RES ovarian
[65] = system: OVCAR-5 ovarian
[66] = system: PC-3 prostate
[67] = system: RXF 393 renal
[68] = system: SK-MEL-2 melanoma
[69] = system: T-47D breast

Q: For COC(=O)C1=CC2C(=O)OC1C1C(=O)NC(=O)C21 (stereo not given), which TGI [1] is on record?
A: The TGI was greater than 100 µM.

Q: What about the TGI [2] of the same molecule?
A: The TGI was greater than 100 µM.

Q: And the TGI [3]?
A: Its TGI is greater than 100 µM.

Q: What about the TGI [4] of the same molecule?
A: The TGI was greater than 100 µM.

Q: What about the TGI [5] of the same molecule?
A: The TGI was greater than 100 µM.

Q: What about the TGI [6] of the same molecule?
A: Its TGI is greater than 100 µM.

Q: What about the TGI [7] of the same molecule?
A: Its TGI is greater than 100 µM.

Q: What about the TGI [8] of the same molecule?
A: The TGI was greater than 100 µM.

Q: And the TGI [9]?
A: Its TGI is greater than 100 µM.

Q: And the TGI [10]?
A: Its TGI is greater than 100 µM.

Q: What about the TGI [11] of the same molecule?
A: Its TGI is greater than 100 µM.

Q: And the TGI [12]?
A: The TGI was greater than 100 µM.

Q: And the TGI [13]?
A: The TGI was greater than 100 µM.

Q: What about the TGI [14] of the same molecule?
A: Its TGI is greater than 100 µM.

Q: And the TGI [15]?
A: The TGI was greater than 100 µM.

Q: And the TGI [16]?
A: Its TGI is greater than 100 µM.

Q: What about the TGI [17] of the same molecule?
A: The TGI was greater than 100 µM.

Q: And the TGI [18]?
A: The TGI was greater than 100 µM.

Q: And the TGI [19]?
A: Its TGI is greater than 100 µM.

Q: And the TGI [20]?
A: The TGI was greater than 100 µM.

Q: What about the TGI [21] of the same molecule?
A: The TGI was greater than 100 µM.

Q: What about the TGI [22] of the same molecule?
A: Its TGI is greater than 100 µM.

Q: What about the TGI [23] of the same molecule?
A: Its TGI is greater than 100 µM.

Q: What about the TGI [24] of the same molecule?
A: Its TGI is greater than 100 µM.

Q: And the TGI [25]?
A: Its TGI is greater than 100 µM.

Q: What about the TGI [26] of the same molecule?
A: Its TGI is greater than 100 µM.

Q: What about the TGI [27] of the same molecule?
A: The TGI was greater than 100 µM.

Q: What about the TGI [28] of the same molecule?
A: The TGI was greater than 100 µM.

Q: What about the TGI [29] of the same molecule?
A: The TGI was greater than 100 µM.

Q: What about the TGI [30] of the same molecule?
A: Its TGI is greater than 100 µM.

Q: And the TGI [31]?
A: Its TGI is greater than 100 µM.

Q: And the TGI [32]?
A: Its TGI is greater than 100 µM.

Q: And the TGI [33]?
A: Its TGI is greater than 100 µM.

Q: What about the TGI [34] of the same molecule?
A: Its TGI is greater than 100 µM.

Q: And the TGI [35]?
A: The TGI was greater than 100 µM.

Q: And the TGI [36]?
A: Its TGI is greater than 100 µM.

Q: What about the TGI [37] of the same molecule?
A: Its TGI is greater than 100 µM.

Q: What about the TGI [38] of the same molecule?
A: Its TGI is greater than 100 µM.

Q: And the TGI [39]?
A: Its TGI is greater than 100 µM.

Q: What about the TGI [40] of the same molecule?
A: Its TGI is greater than 100 µM.

Q: And the TGI [41]?
A: The TGI was greater than 100 µM.

Q: And the TGI [42]?
A: The TGI was greater than 100 µM.

Q: What about the TGI [43] of the same molecule?
A: The TGI was greater than 100 µM.

Q: What about the TGI [44] of the same molecule?
A: Its TGI is greater than 100 µM.

Q: What about the TGI [45] of the same molecule?
A: The TGI was greater than 100 µM.

Q: What about the TGI [46] of the same molecule?
A: Its TGI is greater than 100 µM.

Q: And the TGI [47]?
A: Its TGI is greater than 100 µM.

Q: And the TGI [48]?
A: The TGI was greater than 100 µM.

Q: And the TGI [49]?
A: The TGI was greater than 100 µM.

Q: And the TGI [50]?
A: The TGI was greater than 100 µM.

Q: And the TGI [51]?
A: The TGI was greater than 100 µM.

Q: And the TGI [52]?
A: The TGI was greater than 100 µM.

Q: What about the TGI [53] of the same molecule?
A: The TGI was greater than 100 µM.

Q: What does the source list for Brc1ccccc2cc(-c3ccccc3)nc1-2?
A: TGI [1]: 10.8 µM; TGI [2]: 42.7 µM; TGI [3]: 53 µM; TGI [4]: 20.6 µM; TGI [54]: 56.5 µM; TGI [5]: 44.7 µM; TGI [6]: > 48.5 µM; TGI [7]: 15.8 µM; TGI [8]: 3.74 µM; TGI [9]: 6.12 µM; TGI [10]: 16.4 µM; TGI [55]: > 63.3 µM; TGI [56]: 40.4 µM; TGI [11]: 10.8 µM; TGI [12]: 10.5 µM; TGI [57]: 17.1 µM; TGI [13]: 35.8 µM; TGI [14]: 13.9 µM; TGI [15]: 42.9 µM; TGI [16]: 19.8 µM; TGI [58]: > 100 µM; TGI [17]: > 90.3 µM; TGI [18]: 26.5 µM; TGI [19]: > 61.2 µM; TGI [20]: 32.8 µM; TGI [22]: 21.4 µM; TGI [23]: 3.25 µM; TGI [24]: 28.3 µM; TGI [26]: 20.4 µM; TGI [59]: 64.8 µM; TGI [60]: > 42.3 µM; TGI [61]: > 61 µM; TGI [62]: 29.4 µM; TGI [27]: > 92.3 µM; TGI [63]: 37.7 µM; TGI [28]: 21.2 µM; TGI [29]: 73.5 µM; TGI [30]: 21.7 µM; TGI [64]: 44.6 µM; TGI [31]: 12.3 µM; TGI [32]: 19.8 µM; TGI [65]: 35 µM; TGI [33]: > 50.2 µM; TGI [66]: > 64.8 µM; TGI [34]: 29.7 µM; TGI [67]: 16.7 µM; TGI [35]: > 53.3 µM; TGI [36]: 28.7 µM; TGI [37]: 48.9 µM; TGI [38]: 17.7 µM; TGI [68]: 18.6 µM; TGI [39]: 29.8 µM; TGI [40]: 36.2 µM; TGI [41]: 37.8 µM; TGI [42]: 19.4 µM; TGI [43]: 40.7 µM; TGI [44]: 51.5 µM; TGI [45]: 6.91 µM; TGI [47]: > 36.2 µM; GI50 [69]: 15.7 µM; TGI [69]: > 100 µM; TGI [48]: 30.8 µM; TGI [49]: 37.5 µM; TGI [50]: 32 µM; TGI [51]: 23.7 µM; TGI [52]: 25.5 µM; TGI [53]: 3.44 µM
